# Values quoted from earlier work, collected in patent US11278511B2, “Sports health performance composition” (REV Pharmaceuticals, Inc., priority 2016, dated 2022).
# Read-outs that look alike come from different tables or passages of the source.
# What was measured:
# [1] = system: urinary cGMP and nitrate excretion
# [2] = IV infusion or oral, doses 6 to 30 gm, humans
compound,measurement,setting,value
N=C(N)NCCC[C@H](N)C(=O)O [L-arginine],changes in hemodynamics,humans; 6 gm doses,No significant changes
same,blood pressure,humans; 30 gm IV,significantly decreased
same,total peripheral resistance,humans; 30 gm IV,significantly decreased
same,endothelium-dependent vasodilation,humans; [2],improved endothelium-dependent vasodilation
same,muscle blood flow,humans; [2],improved muscle blood flow
same,peripheral vasodilation,humans; [2],induced peripheral vasodilation
same,Cmax,6 gm IV,822 µM
same,Cmax,6 gm oral,310 µM
same,Cmax,30 gm IV,6220 µM
same,Half life,IV,1 h
same,Half life,PO,1.5 h
same,urinary cGMP excretion,[1]; 6 gm IV,significant increases
same,urinary nitrate excretion,[1]; 6 gm IV,significant increases
same,urinary cGMP excretion,[1]; 30 gm IV,significant increases
same,urinary nitrate excretion,[1]; 30 gm IV,significant increases
